Biological target: Epidermal growth factor receptor (Homo sapiens, UniProt P00533)
Test: Inhibition Assay

Epidermal growth factor receptor, sequence (P00533 whole entry): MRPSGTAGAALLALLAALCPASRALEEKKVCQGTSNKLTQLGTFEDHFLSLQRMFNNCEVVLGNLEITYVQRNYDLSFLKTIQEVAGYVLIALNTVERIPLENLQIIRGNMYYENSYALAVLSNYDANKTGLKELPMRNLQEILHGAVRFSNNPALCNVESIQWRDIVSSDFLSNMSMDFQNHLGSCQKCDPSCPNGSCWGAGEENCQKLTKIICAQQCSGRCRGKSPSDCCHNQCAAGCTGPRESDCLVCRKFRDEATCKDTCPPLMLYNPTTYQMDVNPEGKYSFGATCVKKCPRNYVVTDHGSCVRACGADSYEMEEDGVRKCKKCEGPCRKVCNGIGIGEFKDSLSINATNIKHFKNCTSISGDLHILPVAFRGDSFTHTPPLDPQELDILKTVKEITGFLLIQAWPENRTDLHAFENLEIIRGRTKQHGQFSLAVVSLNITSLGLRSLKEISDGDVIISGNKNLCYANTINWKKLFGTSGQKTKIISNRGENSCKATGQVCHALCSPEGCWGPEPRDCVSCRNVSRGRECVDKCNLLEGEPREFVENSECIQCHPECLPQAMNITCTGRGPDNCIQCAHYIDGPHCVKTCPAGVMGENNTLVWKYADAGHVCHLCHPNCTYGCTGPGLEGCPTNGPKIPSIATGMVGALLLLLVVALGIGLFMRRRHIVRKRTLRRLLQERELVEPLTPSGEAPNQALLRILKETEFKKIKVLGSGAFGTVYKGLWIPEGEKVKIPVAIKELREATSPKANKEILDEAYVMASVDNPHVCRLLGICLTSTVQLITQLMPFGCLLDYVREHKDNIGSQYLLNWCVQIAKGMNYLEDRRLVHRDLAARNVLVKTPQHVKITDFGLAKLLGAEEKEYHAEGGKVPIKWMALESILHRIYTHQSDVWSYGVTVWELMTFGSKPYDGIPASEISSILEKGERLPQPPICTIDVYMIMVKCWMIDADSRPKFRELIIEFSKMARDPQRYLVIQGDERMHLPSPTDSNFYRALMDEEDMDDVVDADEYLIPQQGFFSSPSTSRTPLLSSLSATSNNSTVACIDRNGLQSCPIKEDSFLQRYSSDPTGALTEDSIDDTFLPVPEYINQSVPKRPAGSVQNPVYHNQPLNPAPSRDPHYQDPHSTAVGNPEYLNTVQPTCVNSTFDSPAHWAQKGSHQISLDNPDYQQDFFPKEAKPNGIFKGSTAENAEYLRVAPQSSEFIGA

Row | IC50 [nM] | Compound
1 | 578 | C=CC(=O)Nc1cc(Nc2nc(-c3cnn(C)c3)c3cc[nH]c3n2)c(OC)cc1OCCN(C)C [US9890168, Compound 10]
2 | > 1000 | C=CC(=O)Nc1cc(Nc2nc(-c3cnn(C)c3)c3c(C)c[nH]c3n2)c(OC)cc1N1CCC(N(C)C)CC1 [US9890168, Compound 14]

Source: BindingDB's records for patent US9890168 (Shanghai Haiyan Pharmaceutical Technology, 2018)
